According to PubChem BioAssay (NCI):
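Assay format: 96-well plates, 48-hour exposure. The concentration for 50% growth inhibition is given as GI50. TGI: total growth inhibition.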

Columns and labels:
Assay in all cases: NCI tumour cell line growth inhibition, 48 h
ACHN renal = tested on: ACHN renal
SK-MEL-5 melanoma = tested on: SK-MEL-5 melanoma
HCC-2998 colon = tested on: HCC-2998 colon
HOP-92 NSCLC = tested on: HOP-92 NSCLC
HCT-116 colon = tested on: HCT-116 colon
HS 578T breast = tested on: HS 578T breast
LOX IMVI melanoma = tested on: LOX IMVI melanoma
NCI-H23 lung = tested on: NCI-H23 lung
EKVX NSCLC = tested on: EKVX NSCLC
OVCAR-3 ovarian = tested on: OVCAR-3 ovarian

`CSc1ccc(C2=NN(C(=O)c3ccc(N)cc3)C(c3ccc(F)cc3)C2)cc1` (stereo not given) was tested, and the GI50 (ACHN renal) was 7.35 µM, the TGI (ACHN renal) was 19.7 µM and the GI50 (SK-MEL-5 melanoma) was 5.66 µM. For the same compound, the TGI (SK-MEL-5 melanoma) was 18.8 µM, the GI50 (HCC-2998 colon) was 8.79 µM and the TGI (HCC-2998 colon) was 21.8 µM. It also gave a GI50 (HOP-92 NSCLC) of 2.36 µM, a TGI (HOP-92 NSCLC) of 17.7 µM and a GI50 (HCT-116 colon) of 1.73 µM. For the same compound, the TGI (HCT-116 colon) was 3.93 µM, the GI50 (HS 578T breast) was 21.4 µM and the TGI (HS 578T breast) was 55.8 µM. The GI50 (LOX IMVI melanoma) was 2.53 µM, the TGI (LOX IMVI melanoma) was 6.84 µM and the GI50 (NCI-H23 lung) was 17.5 µM. It also gave a TGI (NCI-H23 lung) of 37.9 µM, a GI50 (EKVX NSCLC) of 16.6 µM and a TGI (EKVX NSCLC) of 34 µM. It also gave a GI50 (OVCAR-3 ovarian) of 4.54 µM and a TGI (OVCAR-3 ovarian) of 17.2 µM.

In the case of `O=C1c2cccc3cc([N+](=O)[O-])cc(c23)C(=O)N1O`, the TGI (ACHN renal) is reported as over 100 µM, the TGI (SK-MEL-5 melanoma) is reported as over 100 µM and the TGI (HCC-2998 colon) is reported as 65.2 µM. For the same compound, the TGI (HOP-92 NSCLC) was over 100 µM, the TGI (HCT-116 colon) was over 100 µM and the TGI (HS 578T breast) was over 100 µM. For the same compound, the TGI (LOX IMVI melanoma) was over 100 µM, the TGI (NCI-H23 lung) was over 100 µM and the TGI (EKVX NSCLC) was over 100 µM. It also gave a TGI (OVCAR-3 ovarian) of over 100 µM.

`C=C1CO[C@@H]2C[C@@H]1CC/C(C)=C/CC/C(C)=C/CC[C@@]2(C)O` gave a GI50 (ACHN renal) of 18.8 µM, a TGI (ACHN renal) of 34 µM and a GI50 (SK-MEL-5 melanoma) of 18.5 µM. For the same compound, the TGI (SK-MEL-5 melanoma) was 34.5 µM, the GI50 (HCC-2998 colon) was 18.3 µM and the TGI (HCC-2998 colon) was 36.4 µM. For the same compound, the GI50 (HOP-92 NSCLC) was 15.9 µM, the TGI (HOP-92 NSCLC) was 44.9 µM and the GI50 (HCT-116 colon) was 17.2 µM. For the same compound, the TGI (HCT-116 colon) was 31.4 µM, the GI50 (HS 578T breast) was 25.7 µM and the TGI (HS 578T breast) was over 83.4 µM. For the same compound, the GI50 (LOX IMVI melanoma) was 2.25 µM, the TGI (LOX IMVI melanoma) was 21.4 µM and the GI50 (NCI-H23 lung) was 21.8 µM. For the same compound, the TGI (NCI-H23 lung) was 44.6 µM, the GI50 (EKVX NSCLC) was 22.4 µM and the TGI (EKVX NSCLC) was 45.2 µM. It also gave a GI50 (OVCAR-3 ovarian) of 24.1 µM and a TGI (OVCAR-3 ovarian) of 51.6 µM.

`COc1ccc(C2C3=C(COC3=O)N(CCO)c3cc4c(cc32)OCCO4)cc1OC` (stereo not given) gave a GI50 (ACHN renal) of over 50 µM, a TGI (ACHN renal) of over 50 µM and a GI50 (SK-MEL-5 melanoma) of 0.906 µM. For the same compound, the TGI (SK-MEL-5 melanoma) was over 50 µM, the GI50 (HCC-2998 colon) was 1.76 µM and the TGI (HCC-2998 colon) was 8.67 µM. The GI50 (HOP-92 NSCLC) was 0.837 µM, the TGI (HOP-92 NSCLC) was over 50 µM and the GI50 (HCT-116 colon) was 1.96 µM. It also gave a TGI (HCT-116 colon) of over 50 µM, a GI50 (HS 578T breast) of 1.44 µM and a TGI (HS 578T breast) of over 50 µM. The GI50 (LOX IMVI melanoma) was 3.84 µM, the TGI (LOX IMVI melanoma) was over 50 µM and the GI50 (NCI-H23 lung) was 2.25 µM. It also gave a TGI (NCI-H23 lung) of over 50 µM, a GI50 (EKVX NSCLC) of 5.98 µM and a TGI (EKVX NSCLC) of over 50 µM. For the same compound, the GI50 (OVCAR-3 ovarian) was 1.11 µM and the TGI (OVCAR-3 ovarian) was 3 µM.

`Cc1cc2nc3c4ccccc4n(CCN(C)C)c3nc2cc1C` showed a GI50 (ACHN renal) of 0.555 µM, a TGI (ACHN renal) of 11.3 µM and a GI50 (SK-MEL-5 melanoma) of 1.7 µM. The TGI (SK-MEL-5 melanoma) was 3.19 µM, the GI50 (HCC-2998 colon) was 1.47 µM and the TGI (HCC-2998 colon) was 4.13 µM. For the same compound, the GI50 (HOP-92 NSCLC) was 1.36 µM, the TGI (HOP-92 NSCLC) was 8.85 µM and the GI50 (HCT-116 colon) was 0.488 µM. For the same compound, the TGI (HCT-116 colon) was 11.3 µM, the GI50 (HS 578T breast) was 1.57 µM and the TGI (HS 578T breast) was 5.76 µM. For the same compound, the GI50 (LOX IMVI melanoma) was 0.748 µM, the TGI (LOX IMVI melanoma) was 3.68 µM and the GI50 (NCI-H23 lung) was 1.87 µM. The TGI (NCI-H23 lung) was 5.7 µM, the GI50 (EKVX NSCLC) was 2.23 µM and the TGI (EKVX NSCLC) was 7.32 µM. For the same compound, the GI50 (OVCAR-3 ovarian) was 1.91 µM and the TGI (OVCAR-3 ovarian) was 7.28 µM.

`CCOc1cc(/C=N\NC(=O)N/N=C/c2ccc(O)c(OCC)c2)ccc1O` showed a GI50 (ACHN renal) of 7.99 µM, a TGI (ACHN renal) of over 100 µM and a GI50 (SK-MEL-5 melanoma) of 1.05 µM. The TGI (SK-MEL-5 melanoma) was 18 µM, the GI50 (HCC-2998 colon) was 2.97 µM and the TGI (HCC-2998 colon) was over 100 µM. It also gave a GI50 (HOP-92 NSCLC) of 87.5 µM, a TGI (HOP-92 NSCLC) of over 100 µM and a GI50 (HCT-116 colon) of 0.866 µM. The TGI (HCT-116 colon) was over 100 µM, the GI50 (HS 578T breast) was 1.16 µM and the TGI (HS 578T breast) was over 100 µM. For the same compound, the GI50 (LOX IMVI melanoma) was 2.45 µM, the TGI (LOX IMVI melanoma) was over 100 µM and the GI50 (NCI-H23 lung) was 4.22 µM. The TGI (NCI-H23 lung) was over 100 µM, the GI50 (EKVX NSCLC) was 4.38 µM and the TGI (EKVX NSCLC) was over 100 µM. The GI50 (OVCAR-3 ovarian) was 0.308 µM and the TGI (OVCAR-3 ovarian) was 1.08 µM.
